# Experimental data: US20120004215A1 (priority 2009, published 2012)
# Target: α7-subtype of nicotinic receptors (Mus musculus, UniProt P49582)
# Format: in vivo, mice
# Conditions: ex vivo, mouse hippocampal membranes; dose inhibiting specific binding of 3H-α-bungarotoxin (1 nM) by 50%
# α7-subtype of nicotinic receptors, sequence (P49582 23-502): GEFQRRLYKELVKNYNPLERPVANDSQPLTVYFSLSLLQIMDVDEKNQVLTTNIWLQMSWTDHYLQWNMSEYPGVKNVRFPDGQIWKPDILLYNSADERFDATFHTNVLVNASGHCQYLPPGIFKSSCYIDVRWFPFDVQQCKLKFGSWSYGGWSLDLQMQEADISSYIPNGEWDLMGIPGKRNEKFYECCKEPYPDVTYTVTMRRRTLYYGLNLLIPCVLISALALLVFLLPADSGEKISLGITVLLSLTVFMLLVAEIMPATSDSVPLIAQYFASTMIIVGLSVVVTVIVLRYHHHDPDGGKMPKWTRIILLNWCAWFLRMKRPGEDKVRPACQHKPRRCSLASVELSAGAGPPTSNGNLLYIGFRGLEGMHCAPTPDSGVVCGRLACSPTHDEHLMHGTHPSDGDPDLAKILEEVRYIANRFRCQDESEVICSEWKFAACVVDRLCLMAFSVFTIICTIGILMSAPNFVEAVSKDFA
smiles,measurement,value
"O=c1c2ccccc2nnn1-c1cnc(N2CC[N+]3([O-])CCC2CC3)nc1 [Compound 1, 3-[2-(1-Oxy-1,4-diaza-bicyclo[3.2.2]non-4-yl)-pyrimidin-5-yl]-3H-benzo[d][1,2,3]-triazin-4-one]","EC50 (mg/kg), Inhibition of 3H-α-Bungarotoxine Binding",9.4 mg/kg
